Data taken from US12390470B2, “1-methylxanthine-based bioactive composition and method of use thereof” (Ingenious Ingredients, LP, priority 2021, dated 2025).

Legend:
participants [1] = assay: Resting energy expenditure, placebo-controlled crossover; format: in vivo, human
Procedure: Two participants were assigned in a randomized, double-blind, placebo-controlled, crossover fashion to ingest a non-energetic placebo (maltodextrin) or a 200 mg dose of 1-methylxanthine (1-MX). All supplements were orally ingested with 8 fluid ounces of cold tap water. Resting Energy Expenditure was measured at baseline, 30, 60, 90, 120 and 180 minutes after ingestion.

participants [2] = assay: Respiratory quotient, placebo-controlled crossover; format: in vivo, human
Procedure: All supplements were orally ingested with 8 fluid ounces of cold tap water. The order of administration for all interventions was randomized using a random allocation software to ensure randomization and to avoid order effects. After ingestion, participants completed all assessments in an identical fashion 30, 60, 90, 120, and 180 minutes after ingestion of their assigned supplement. All study visits took place between 0600-1000 hours. At least 72 hours of rest will take place between each condition.
The lower the RQ, the more fat that is being oxidized for body energy needs. The closer to 1.0 the more carbohydrate is being burned for energy needs. If numbers are lower more fat is being oxidized.

Swiss Albino Wistar rats = assay: Morris water maze test in young and old rats; format: in vivo; conditions: HED 100 mg 1-MX (+25 mg PX)
Procedure: Twenty-four young (6-8 Week) and twenty-four old (14-16 Months) Swiss Albino Wistar rats were housed in an animal room at a constant temperature (22±3° C.) and humidity (30%-70%) under a 12:12 h light-dark cycle with standard laboratory diet (Purina 5L79, Rat and Mouse 18% protein; PMI Nutrition International, Brentwood, MO, USA). Distilled water was provided ad libitum. All animal experiments were reviewed and approved by the Institutional Animal Ethical Committee (IAEC) of Radiant Research Services Pvt. Ltd (Bangalore, India). All research was conducted in accordance with the guidelines of the committee for the purpose of control and supervision of experiments on animals.
After one week of acclimation, the animals were randomly divided by body weight and age into six groups (n=8 per group in each test) for oral treatment once a day, at approximately same time each day (±1 hour), for 10 consecutive days: (1) vehicle control or (2) 1-methylxanthine or (3) 1-methylxanthine plus paraxanthine. The dose administered to the rat was calculated using US Food and Drug Administration for human equivalence doses (HED), assuming a human weight of 60 kg. […] Food intake was monitored daily while water intake was ad libitum. […] Body weight was recorded weekly. […]

[3] = Person one, time 0, 200 mg oral
[4] = Person two, time 0, 200 mg oral

Structure (SMILES): Cn1c(=O)[nH]c2nc[nH]c2c1=O [1-methylxanthine, 1-Methyl-3H-purine-2,6-dione]
- Resting Energy Expenditure MEAN (participants [1]; Average): 1,897 kcals/day
- Resting Energy Expenditure MEAN (participants [1]; Person one): 2,006 kcals/day
- Resting Energy Expenditure (participants [1]; Person one, 30 min): 2050 kcals/day
- Resting Energy Expenditure (participants [1]; Person one, 60 min): 1975 kcals/day
- Resting Energy Expenditure (participants [1]; Person one, 90 min): 1988 kcals/day
- Resting Energy Expenditure (participants [1]; Person one, 120 min): 1964 kcals/day
- Resting Energy Expenditure (participants [1]; Person one, 180 min): 2053 kcals/day
- Resting Energy Expenditure (participants [1]; [3]): 2017 kcals/day
- Resting Energy Expenditure MEAN (participants [1]; Person two): 1,788 kcals/day
- Resting Energy Expenditure (participants [1]; Person two, 30 min): 1789 kcals/day
- Resting Energy Expenditure (participants [1]; Person two, 60 min): 1790 kcals/day
- Resting Energy Expenditure (participants [1]; Person two, 90 min): 1777 kcals/day
- Resting Energy Expenditure (participants [1]; Person two, 120 min): 1912 kcals/day
- Resting Energy Expenditure (participants [1]; Person two, 180 min): 1670 kcals/day
- Resting Energy Expenditure (participants [1]; [4]): 1769 kcals/day
- respiratory quotient reduced compared to placebo (participants [2]; 200 mg oral): 15%
- greater fat loss than CA (participants [2]; 200 mg oral, from respiratory quotient): 2.3%
- Respiratory Quotient MEAN (30-180) (participants [2]; Average): 0.685
- Respiratory Quotient MEAN (30-180) (participants [2]; Person one): 0.676
- Respiratory Quotient (participants [2]; Person one, 30 min after ingestion): 0.69
- Respiratory Quotient (participants [2]; Person one, 60 min): 0.66
- Respiratory Quotient (participants [2]; Person one, 90 min): 0.67
- Respiratory Quotient (participants [2]; Person one, 120 min): 0.69
- Respiratory Quotient (participants [2]; Person one, 180 min): 0.67
- Respiratory Quotient (participants [2]; [3]): 0.67
- Respiratory Quotient MEAN (30-180) (participants [2]; Person two): 0.694
- Respiratory Quotient (participants [2]; Person two, 30 min): 0.72
- Respiratory Quotient (participants [2]; Person two, 60 min): 0.71
- Respiratory Quotient (participants [2]; Person two, 90 min): 0.66
- Respiratory Quotient (participants [2]; Person two, 120 min): 0.68
- Respiratory Quotient (participants [2]; Person two, 180 min): 0.70
- Respiratory Quotient (participants [2]; [4]): 0.70
- Escape latency, Morris water maze (Swiss Albino Wistar rats; old rats): 41.71 ± 1.81 s
- Escape latency, Morris water maze (Swiss Albino Wistar rats; young rats): 32.18 ± 1.10 s
